# Patent US8980944B2 (Gemmus Pharma Inc., priority 2006, dated 2015)
# Where “and” joins values, the source holds several entries; their conditions need not be identical. Identical values can stand only once.
# How the values were obtained:
# TNFα [1] = experiment: Poly(I:C)-stimulated human monocyte-derived dendritic cells, TNFα release (ELISA); format: cell-based; details: one micromolar; for TNFα percent inhibition from untreated control: Poly IC-stimulated monocyte-derived dendritic cells, 18 hours
# TNFα [2] = experiment: ConA-stimulated human peripheral blood lymphocytes, TNFα release (ELISA); details: human T cells, ConA stimulation
# clinical = details: human, in vivo, po
# IL-2 = experiment: Anti-CD3/CD28-stimulated human CD8 cells, IL-2 release (multi-cytokine bead immunoassay)
# IFN-γ [3] = experiment: Anti-CD3/CD28-stimulated human CD8 cells, IFN-γ release (multi-cytokine bead immunoassay)
# IL-12 = experiment: LPS-stimulated human monocyte-derived dendritic cells, IL-12 release (ELISA); details: LPS stimulation
# GM-CSF = experiment: Anti-CD3/CD28-stimulated human CD8 cells, GM-CSF release (multi-cytokine bead immunoassay); details: 1 μM Nileprost, Anti-CD3/CD28 stimulation, individual donors 1-4
# [4] = Study A: tolerance and pharmacokinetics in volunteers after single oral dose; details: human, in vivo
# IFN-γ [5] = experiment: ConA-stimulated human peripheral blood lymphocytes, IFN-γ release (ELISA); details: for Percent inhibition of IFN-γ compared to uninhibited control: human T cells, ConA stimulation
smiles,measurement,setting,value
CCCCC(C)[C@H](O)/C=C/[C@@H]1[C@H]2C/C(=C(\C#N)CCCC(=O)O)O[C@H]2C[C@H]1O (stereo partly drawn) [Nileprost],TNFα percent inhibition from untreated control,TNFα [1]; Donor 1,89%
same,TNFα percent inhibition from untreated control,TNFα [1]; Donor 2,45%
same,TNFα percent inhibition from untreated control,TNFα [1]; Donor 3,74%
same,Poly(I:C)-induced TNFα,TNFα [1]; monocyte-derived dendritic cells,significant decrease
same,inhibition at 0.001 µM,"TNFα [2]; Homo sapiens, T-cell, read-out: Percent inhibition of TNF compared to uninhibited control, Nileprost 1 nM, individual donors 3-4",24%
same,inhibition at 0.0025 µM,"TNFα [2]; Homo sapiens, T-cell, read-out: Percent inhibition of TNF compared to uninhibited control, Nileprost 2.5 nM, individual donors 1-2",24%
same,inhibition at 0.003 µM,"TNFα [2]; Homo sapiens, T-cell, read-out: Percent inhibition of TNF compared to uninhibited control, Nileprost 3 nM, individual donors 3-4",28%
same,inhibition at 0.005 µM,"TNFα [2]; Homo sapiens, T-cell, read-out: Percent inhibition of TNF compared to uninhibited control, Nileprost 5 nM, individual donors 1-2",47%
same,inhibition at 0.009 µM,"TNFα [2]; Homo sapiens, T-cell, read-out: Percent inhibition of TNF compared to uninhibited control, Nileprost 9 nM, individual donors 3-4",53%
same,inhibition at 0.01 µM,"TNFα [2]; Homo sapiens, T-cell, read-out: Percent inhibition of TNF compared to uninhibited control, Nileprost 10 nM, individual donors 1-2",46%
same,inhibition at 0.02 µM,"TNFα [2]; Homo sapiens, T-cell, read-out: Percent inhibition of TNF compared to uninhibited control, Nileprost 20 nM, individual donors 1-2",50%
same,inhibition at 0.083 µM,"TNFα [2]; Homo sapiens, T-cell, read-out: Percent inhibition of TNF compared to uninhibited control, Nileprost 83 nM, individual donors 3-4",61%
same,Percent inhibition of TNF compared to uninhibited control,"TNFα [2]; Nileprost 0.04 nM, individual donors 3-4",1% and 11%
same,Percent inhibition of TNF compared to uninhibited control,"TNFα [2]; Nileprost 0.11 nM, individual donors 3-4",4% and 16%
same,Percent inhibition of TNF compared to uninhibited control,"TNFα [2]; Nileprost 0.5 nM, individual donors 1-2",7% and 1%
same,Percent inhibition of TNF compared to uninhibited control,"TNFα [2]; Nileprost 1 nM, individual donors 3-4",37%
same,Percent inhibition of TNF compared to uninhibited control,"TNFα [2]; Nileprost 1.25 nM, individual donors 1-2",14% and 5%
same,Percent inhibition of TNF compared to uninhibited control,"TNFα [2]; Nileprost 2.5 nM, individual donors 1-2",19%
same,Percent inhibition of TNF compared to uninhibited control,"TNFα [2]; Nileprost 3 nM, individual donors 3-4",48%
same,Percent inhibition of TNF compared to uninhibited control,"TNFα [2]; Nileprost 5 nM, individual donors 1-2",36%
same,Percent inhibition of TNF compared to uninhibited control,"TNFα [2]; Nileprost 9 nM, individual donors 3-4",67%
same,Percent inhibition of TNF compared to uninhibited control,"TNFα [2]; Nileprost 10 nM, individual donors 1-2",49%
same,Percent inhibition of TNF compared to uninhibited control,"TNFα [2]; Nileprost 83 nM, individual donors 3-4",76%
same,Percent inhibition of TNF compared to uninhibited control,"TNFα [2]; Nileprost 250 nM, individual donors 3-4",49% and 76%
same,Cmax,clinical; 50 ug,0.566 ng/mL and 1.4 nM
same,Cmax,clinical; 75 ug,0.869 ng/mL and 2.2 nM
same,Cmax,clinical; 112 ug,0.803 ng/mL and 2 nM
same,Cmax,clinical; 170 ug,0.954 ng/mL and 2.4 nM
same,Cmax,clinical; 255 ug,1.71 ng/mL and 4.3 nM
same,Cmax,clinical; 375 ug,1.72 ng/mL and 4.3 nM
same,Percent inhibition of IL-2 compared to uninhibited control,"IL-2; 1 μM Nileprost, Anti-CD3/CD28 stimulation, individual donors 1-4",70%
same,inhibition at 1 µM,"IL-2; Homo sapiens, read-out: Percent inhibition of IL-2 compared to uninhibited control, 1 μM Nileprost, Anti-CD3/CD28 stimulation, individual donors 1-4",71%
same,Percent inhibition of IFN-γ compared to uninhibited control,"IFN-γ [3]; 1 μM Nileprost, human CD8 cells, Anti-CD3/CD28 stimulation, individual donors 1-4",59% and 80%
same,inhibitory activity in the cytotoxic CD8+ lymphocyte cytokine release,"IFN-γ [3]; IFN-γ, GM-CSF and IL-2, anti-CD3/CD28 stimulation",very high inhibitory activity
same,inhibitory activity in human monocyte-derived dendritic cell (DC) cytokine release,IL-12,very high inhibitory activity
same,Percent inhibition of GM-CSF compared to uninhibited control,GM-CSF,65% and 61%
same,Cmax,[4]; 32 ug,0.84 ng/mL and 2.1 nM
same,Cmax,[4]; 65 ug,0.929 ng/mL and 2.3 nM
same,Percent inhibition of IFN-γ compared to uninhibited control,"IFN-γ [5]; Nileprost 0.04 nM, individual donors 5-8",16% and 7% and 9% and 27%
same,Percent inhibition of IFN-γ compared to uninhibited control,"IFN-γ [5]; Nileprost 0.11 nM, individual donors 5-8",22% and 16% and 34%
same,Percent inhibition of IFN-γ compared to uninhibited control,"IFN-γ [5]; Nileprost 1 nM, individual donors 5-8",43% and 32% and 24% and 51%
same,Percent inhibition of IFN-γ compared to uninhibited control,"IFN-γ [5]; Nileprost 1.25 nM, individual donors 1-4",11%
same,Percent inhibition of IFN-γ compared to uninhibited control,"IFN-γ [5]; Nileprost 2.5 nM, individual donors 1-4",43%
same,Percent inhibition of IFN-γ compared to uninhibited control,"IFN-γ [5]; Nileprost 3 nM, individual donors 5-8",56% and 46% and 22% and 71%
same,Percent inhibition of IFN-γ compared to uninhibited control,"IFN-γ [5]; Nileprost 5 nM, individual donors 1-4",48% and 56%
same,Percent inhibition of IFN-γ compared to uninhibited control,"IFN-γ [5]; Nileprost 9 nM, individual donors 5-8",59% and 60% and 48% and 73%
same,Percent inhibition of IFN-γ compared to uninhibited control,"IFN-γ [5]; Nileprost 10 nM, individual donors 1-4",43%
same,Percent inhibition of IFN-γ compared to uninhibited control,"IFN-γ [5]; Nileprost 20 nM, individual donors 1-4",56% and 67%
same,Percent inhibition of IFN-γ compared to uninhibited control,"IFN-γ [5]; Nileprost 83 nM, individual donors 5-8",57% and 60% and 65% and 85%
same,Percent inhibition of IFN-γ compared to uninhibited control,"IFN-γ [5]; Nileprost 250 nM, individual donors 5-8",59% and 76% and 57% and 83%
same,inhibitory activity in the T lymphocyte Th-1 cytokine release,"IFN-γ [5]; dose responsively, ConA-stimulated human lymphocytes",very high inhibitory activity
